These results are taken from US9677109B2, “Rapid determination of microbial growth and antimicrobial susceptibility” (priority 2013, dated 2017).

Assay [1] relates to Staphylococcus aureus (STAU). Briefly: MADM resistance phenotype test, respiratory specimens. It counts as cell-based. As for the experimental part:
(§1) (ABCC). Concurrent quantitative culture (qCx) was performed on specimens.
(§2) 20 μL samples of prepared specimen were pipetted into independent flowcell channels and a low-voltage electrical field was applied for 5 minutes. The electrical field concentrated bacteria onto a functional surface coating that immobilized the bacteria on the lower flowcell surface. Each flowcell channel received only one type of test reagent solution that contained a selective agent if required (only for channels used to test AB, sulbactam 32 μg/mL).
(§3) The instrument acquired images at 10-minutes intervals for 180 minutes, using 10 fields of view in each flowcell channel through a 20× objective. Imaging used darkfield illumination. Identification variables included response to selective agents (AB with sulbactam), cell morphology, growth morphology, and growth rate.
(§4) Identification algorithms applied to each individual immobilized bacterial cell. The system measured the amount of change in mass over time to compute growth rates. Identification consisted of computing and combining probability scores for morphology, response to selective media, and growth rates to produce a receiver operating characteristic curve (ROC) to derive classification criteria.

Assay [2] deals with Staphylococcus aureus (SA). Kind of assay: MADM clone growth in antibiotic agar, simulated blood specimens. It counts as cell-based. The settings on record: SA in 6 μg/mL FOX, FIG. 10B, three hours. As for the experimental part: The MADM system used a custom microscope and pipetting robot, plus an evaluation system, as described herein. 32-channel disposable cassettes (FIG. 4A) enabled live microorganism immobilization for microscopy and fluid exchanges for different test agents. The microscope scanned 40 image fields in each flowcell channel, each channel having organisms extracted from about 3.5 μL of prepared inoculum.
Simulated blood specimens consisted of isolates spiked into 10 mL each of 29 aliquots of two short-fill CPD blood bank bags to make approximately 5 CFU/mL of bacterial target species, confirmed by quantitative culture. Spiked isolates included 14 Staphylococcus aureus (SA), 3 Pseudomonas aeruginosa (PA), or 12 non-target Gram-negative bacilli species. Dilution of each sample with 30 mL of modified TSB culture medium promoted growth. 20 additional control aliquots contained no spikes. 4-hour incubation at 35° C., followed with brief spin cleanup, ended with pellet resuspension into an electrokinetic buffer to make 1 mL samples for MADM system analysis. 20 μL sample aliquots were then pipetted into 14 cassette flowcells. A 5-minute low-voltage electrokinetic capture was performed to concentrate microorganisms on the lower surface of each flowcell where a capture coating immobilized the bacterial cells. […]

A further assay deals with S. aureus (STAU). Kind of assay: MADM (BACcel) growth analysis sensitivity, surveillance mini-BAL. The note with it: specimen 008-D7, BACcel ID STAU, 1.11 × 10^6 CFU/ml. It counts as cell-based. As for the experimental part: (§5) Adult MICU patients with identified surrogate were included within 72 hours of intubation and if anticipated to require MV for >48 h. Moribund state or pregnancy were exclusions. Surveillance mini-BAL (Combicath, Plastimed) was performed on Day 1, 3, 5, 7 and 10 of MV. Samples were split and processed for both a) routine respiratory quantitative microbiological culture and sensitivity assays (>48 h result availability) and b) rapid (<8 h) flowcell/surface-capture assays using the MADM system. Viable microorganisms were identified using growth analysis enhanced by a focused VAP antibody panel (S. aureus, P. aeruginosa, A. baumannii). Untypable organisms were also reported. Sensitivity was assessed using growth analysis. Attending physicians were blinded to MADM system results.
(§6) BAL sample were prepared, removing debris and separating microorganisms from other sample material. Sample microorganisms were introduced into a multichannel fluidic cassette as described elsewhere herein. Bacteria were concentrated and retained on the lower surface of all flowcells using low-voltage electrical field (5 min). Antibody labeling of bacteria in flowcells was used to aid identification.
(§7) The automated digital microscopy system was used to perform darkfield imaging of 10 fields of view every 10 minutes for 180 minutes in each flowcell channel. Initial epifluorescence imaging was also performed for antibody detection. […] Identification consisted of probability scores based on microorganism morphology and growth rates. Antibody labeling identification data was also incorporated. Observed microorganisms were then classified as STAU, PSAE, or non-target. Antibiotic responses were used to aid identification when appropriate. Quantitation was performed by counting identified microorganism and computing original specimen CFU/mL.

The subject of another assay is Enteric. The assay is described as above. The format is cell-based. The note with it: specimen 005-D7, BACcel ID Enteric, 1.26 × 10^5 CFU/ml. As for the experimental part: as §5, §6, §7
In a further assay the test system is S. maltophilia (Steno). Described as above. It counts as cell-based. As for the experimental part:
as §5, §6, §7

Assay [3] deals with Acinetobacter spp. (ABCC). Kind of assay: MADM resistance phenotype test, respiratory specimens. It counts as cell-based, Acinetobacter sp. The settings on record: ABCC specimen (specimen id not given).
Assay [4] has as its system Pseudomonas aeruginosa (PSAE). Briefly: Culture (Cx) susceptibility result, respiratory specimens. The format is cell-based. As for the experimental part: (§8) DHMC specimens were 7-21 days old. […] Controls used standard culturing methods (Cx).
as §1

Assay [5] concerns Acinetobacter spp. (ABCC). Described as above. The format is cell-based, Acinetobacter sp. The note with it: ABCC specimen (specimen id not given). As for the experimental part: as §8, §1
Assay [6] relates to Pseudomonas aeruginosa (PSAE). Kind of assay: MADM resistance phenotype test, respiratory specimens. It counts as cell-based. The settings on record: PSAE. As for the experimental part:
as §1, §2, §3, §4

As for `CO[C@@]1(NC(=O)Cc2cccs2)C(=O)N2C(C(=O)O)=C(COC(N)=O)CS[C@@H]21` [FOX, cefoxitin], the MADM resistance phenotype result in assay [1] (specimen DH 425, Mini-BAL) is reported as “R”; in [1] (specimen DH 427, Mini-BAL), “S”; in assay [1] (specimen DH 439, Mini-BAL), “R”; in assay [1] (specimen DH 440, BAL), “S”; in [1] (specimen DH 457, BAL), “S”; in assay [1] (specimen DH 485, BAL), “S”. For the same compound, the MADM resistance phenotype entry in [1] (specimen DH 509, BAL) is recorded as “S”; in assay [1] (specimen DH 514, Mini-BAL), “S”; in [1] (specimen DH 543, BAL) it was “S”; in assay [1] (specimen DH 550, BAL), “S”; in assay [1] (specimen DH 556, Mini-BAL), “S”; in [1] (specimen T12, ETA) it was “R”. For the same compound, the Clone growth result in assay [2] is “growth indicating MRSA phenotype”. The “Phenotype, sensitivity” value in the assay with S. aureus (STAU) is recorded as “FOX-R”; in the assay with Enteric, “all growth”; in the assay with S. maltophilia (Steno) (specimen 006-D1, BACcel ID Steno, 7.68 × 10^5 CFU/ml) it was “growth, TZP-”; in the assay with S. maltophilia (Steno) (specimen 006-D3, BACcel ID Steno, 1.60 × 10^4 CFU/ml), “growth, TZP-”.
Regarding `C[C@@H](O)[C@H]1C(=O)N2C(C(=O)O)=C(SCCN=CN)C[C@H]12` [IMP, imipenem], the MADM resistance phenotype result in [3] is “S”; in assay [6] (specimen DH 430, Mini-BAL) it was “S”; in assay [6] (specimen DH 554, BAL) it was “S”; in assay [6] (specimen DH 641, Mini-BAL), “S”. In addition, the “Cx (culture result) susceptibility” value in assay [4] (specimen DH 430, Mini-BAL) is listed as “S”; in [4] (specimen DH 554, BAL), “S”; in [4] (specimen DH 641, Mini-BAL) it was “S”; in assay [5], “S”.
